Reference: patent US20070185020A1, “Methods and compositions for treating disorders of the extracellular matrix” (priority 2003, published 2007)

Tests used:
[1] = system: CDA1; settings: in vitro; reported by other workers; cited from earlier work
[2] = system: CDA1; test: CDA1 expression in kidney after angiotensin II infusion (immunohistochemistry); assay type: in vivo, rat
Procedure: Ang II was continuously infused into rats by subcutaneously inserted minipump for 3 days or 14 days at both pressor (60 ng/min) and non-pressor doses (6 ng/min) in eight week old male Sprague Dawley (SD) rats (Cao et al Z; The angiotensin type 2 receptor is expressed in adult rat kidney and promotes cellular proliferation and apoptosis. Kidney int. 2000; 58:2437-2451).
CDA1 staining was performed using a rabbit antihuman CDA1 serum (Chai et al, 2001) in paraffin embedded sections. In brief, following dewaxing, paraffin embedded sections were treated in a microwave oven at low power for 10 minutes in 10 mmol/L sodium citrate buffer (pH 6.0). Endogenous peroxidase was inactivated using 3% hydrogen peroxide (H2O2) in methanol for 20 minutes. The sections were blocked with protein block agent for 20 minutes. The sections were incubated with rabbit antihuman CDA1 serum for 2 hour at room temperature. Biotinylated goat anti-rabbit immunogloblulin (DAKO A/S) was used as a second antibody, followed by avidin biotin horseradish peroxidase complex (ABC Elite kit, Victor Laboratories, Burlingame, Calif.). Detection was accomplished by reaction with 3,3′-diaminobenzidine tetrahydrochloride (DAB, Sigma Chemical Co., St Louis, Mo.) (Cao Z et al. The angiotensin type 2 receptor is expressed in adult rat kidney and promotes cellular proliferation and apoptosis. Kidney Int. 2000; 58:2437-2451.

[3] = system: CDA1; test: CDA1 expression and fibrosis in the remnant kidney following subtotal nephrectomy (STNx); assay type: in vivo, rat; settings: preliminary data
Procedure: Subtotal nephrectomy (STNx) were performed by right nephrectomy, followed by infarction of approximately two-thirds of the left kidney with selective ligation of all but one extrarenal branch of the left renal artery (CIA40). Anaesthesia was achieved by intraperitoneal injection of pentobarbitone sodium (60 mg/kg). Sham operated rats were used as controls. After operation, the animals were sacrificed at 1, 2, 4, 8 and 12 week and tissue collected for assessment of CDA1 expression and fibrotic growth factors as well as matrix proteins. CDA1 staining was performed using a rabbit antihuman CDA1 serum (Chai et al, 2001) in paraffin embedded sections. In brief, following dewaxing, paraffin embedded sections were treated in a microwave oven at low power for 10 minutes in 10 mmol/L sodium citrate buffer (pH 6.0). Endogenous peroxidase was inactivated using 3% hydrogen peroxide (H2O2) in methanol for 20 minutes. The sections were blocked with protein block agent for 20 minutes. The sections were incubated with rabbit antihuman CDA1 serum for 2 hour at room temperature. Biotinylated goat anti-rabbit immunogloblulin (DAKO A/S) was used as a second antibody, followed by avidin biotin horseradish peroxidase complex (ABC Elite kit, Victor Laboratories, Burlingame, Calif.). […]

Which CDA1 expression [1] does the source give for “TGF β1: growth factor; CDA1 described as a TGF β1 target gene” here?
Its CDA1 expression is “increased”.

With `CCCCC(=O)N(Cc1ccc(-c2ccccc2-c2nnn[nH]2)cc1)[C@H](C(=O)O)C(C)C` [valsartan] as the compound, how does the “Effect on increased CDA1 expression following Ang II infusion” value ([2]; treatment with AT1 receptor antagonist, data not shown) read?
Its value is “prevented”.

And the “Effect on cell injury in remnant kidney” value [3]?
Its value is “less cell injury”.

What about the “Effect on CDA1 expression in remnant kidney” value ([3]; FIG. 3B) of the same compound?
The value was “attenuation of CDA1 expression”.

With “angiotensin II (DRVYIHPF; Angiotensin-2; UniProt P01015 25-32, looked up) [Ang II, peptide hormone infused into rats by minipump to stimulate CDA1 expression]” as the compound, how does the “CDA1 expression after angiotensin II infusion” value ([2]; immunohistochemical staining, proximal tubules, subcutaneous minipump infusion in Sprague Dawley rats) read?
Its value is “increased CDA1 expression”.
